The target of data set [1] is T1, chimeric EGFR/erbB2 kinase (Homo sapiens, UniProt P04626).
T1 construct: EGFR extracellular/erbB2 intracellular; expressed in transfected cells; host or cells: 3T3 cells; the other entry of the earlier key: EGFR (P00533, Epidermal growth factor receptor)
The data set is described as follows: erbB2 receptor autophosphorylation, in vitro cell assay in transfected 3T3 cells. The format is cell-based. The conditions noted are these: intact 3T3 cells transfected with chimeric EGFR/erbB2 kinase; EGF-stimulated phosphotyrosine; read-out: Potency (IC50) for the erbB2 receptor. Here is the method:
The in vitro activity of small molecule compounds as erbB kinase inhibitors in intact cells may be determined by the following procedure. Cells, for example 3T3 cells transfected with human EGFR (Cohen et al. J. Virology 67:5303, 1993) or with chimeric EGFR/erbB2 kinase (EGFR extracellular/erbB2 intracellular, Fazioli et al. Mol. Cell. Biol. 11: 2040, 1991) are plated in 96-well plates at 12,000 cells per well in 100 μl medium (Dulbecco's […] (DMEM) with 5% fetal calf serum, 1% pen/streptomycin, 1% L-glutamine) and incubated at 37° C., 5% CO2 Test compounds are solubilized in DMSO at a concentration of 10 mM, and tested at final concentrations of 0, 0.3 μM, 1 μM, […], 0.1 μM and 10 μM in the medium. The cells are incubated at 37° C. for 2 h. EGF (40 ng/ml final) is added to each well and cells incubate at room temperature for 15 min followed by aspiration of medium, then 100 μl/well cold fixative (50% ethanol/50% acetone containing 200 micromolar sodium orthovanadate) is added. The plate is incubated for 30 min at room temperature followed by washing with wash buffer (0.5% Tween 20 in phosphate buffered saline). Blocking buffer (3% bovine serum albumin, 0.05% Tween 20, 200 μM sodium orthovanadate in phosphate buffered saline, 100 μl/well) is added followed by incubation for 2 hours at room temperature followed by two washes with wash buffer. PY54 monoclonal anti-phosphotyrosine antibody directly conjugated to horseradish peroxidase (50 μl/well, 1 μg/ml in blocking buffer) or blocked conjugate (1 μg/ml with 1 mM phosphotyrosine in blocking buffer, to check specificity) is added and the plates incubated for 2 hours at room temperature. The plate wells are then washed 4 times with wash buffer. The colorimetric signal is developed by addition of TMB Microwell Peroxidase Substrate (Kirkegaard and Perry, Gaithersburg, Md.), 50 μl per well, and stopped by the addition of 0.09 M sulfuric acid, 50 μl per well. Absorbance at 450 nm represents phosphotyrosine content of proteins. The increase in signal in EGF-treated cells over control (non-EGF treated) represents the activity of the EGFR or EGFR/chimera respectively. The potency of an inhibitor is determined by measurement of the concentration of compound needed to inhibit the increase in phosphotyrosine by 50% (IC50) in each cell line. The selectivity of the compounds for erbB2 vs. EGFR is determined by comparison of the IC50 for the EGFR transfectant vs. that for the erbB2/EGFR chimera transfectant. Thus, for example, a compound with an IC50 of 100 nM for the EGFR transfectant and 10 nM for the erbB2/EGFR chimera transfectant is considered 10-fold selective for erbB2 kinase.
(§1) The IC50 values for the inhibition of erbB1 receptor autophosphorylation and erbB2 receptor autophophorylation were determined using the in vitro cell assays described above.

The target in data set [2] is T2, human EGFR (Homo sapiens, UniProt P00533).
T2 construct: expressed in transfected cells; host or cells: 3T3 cells
T2 sequence (P00533 25-1210): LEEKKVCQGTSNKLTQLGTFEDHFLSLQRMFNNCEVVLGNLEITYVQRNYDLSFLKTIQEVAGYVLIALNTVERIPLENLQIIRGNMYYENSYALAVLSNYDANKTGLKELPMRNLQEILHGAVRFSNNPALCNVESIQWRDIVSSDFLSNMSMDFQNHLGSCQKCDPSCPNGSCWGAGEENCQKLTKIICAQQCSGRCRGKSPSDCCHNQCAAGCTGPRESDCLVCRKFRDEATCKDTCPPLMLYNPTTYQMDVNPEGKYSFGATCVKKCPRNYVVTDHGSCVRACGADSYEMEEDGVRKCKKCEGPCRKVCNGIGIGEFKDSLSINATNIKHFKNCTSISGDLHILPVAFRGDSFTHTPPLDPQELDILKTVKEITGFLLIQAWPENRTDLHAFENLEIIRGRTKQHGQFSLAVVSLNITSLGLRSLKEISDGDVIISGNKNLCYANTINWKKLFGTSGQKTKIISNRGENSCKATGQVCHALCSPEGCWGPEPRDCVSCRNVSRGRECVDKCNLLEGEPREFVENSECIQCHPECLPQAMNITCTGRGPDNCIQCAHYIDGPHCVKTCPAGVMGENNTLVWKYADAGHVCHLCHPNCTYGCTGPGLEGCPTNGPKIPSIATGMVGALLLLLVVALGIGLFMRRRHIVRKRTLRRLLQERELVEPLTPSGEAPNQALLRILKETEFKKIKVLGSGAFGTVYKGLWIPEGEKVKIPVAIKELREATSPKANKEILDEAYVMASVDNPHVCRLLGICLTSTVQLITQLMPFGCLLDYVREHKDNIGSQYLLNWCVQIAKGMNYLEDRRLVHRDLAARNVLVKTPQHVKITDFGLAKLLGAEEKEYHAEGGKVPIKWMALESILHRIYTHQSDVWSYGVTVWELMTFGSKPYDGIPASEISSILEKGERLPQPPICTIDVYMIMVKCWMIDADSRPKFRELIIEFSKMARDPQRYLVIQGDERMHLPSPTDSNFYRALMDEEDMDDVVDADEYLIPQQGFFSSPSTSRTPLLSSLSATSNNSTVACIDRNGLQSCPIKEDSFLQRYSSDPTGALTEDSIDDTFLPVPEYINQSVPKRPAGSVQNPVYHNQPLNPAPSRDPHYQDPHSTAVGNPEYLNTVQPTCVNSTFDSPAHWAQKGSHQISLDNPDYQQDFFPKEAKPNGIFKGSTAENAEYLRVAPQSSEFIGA
The data set is described as follows: erbB1 receptor autophosphorylation, in vitro cell assay in transfected 3T3 cells, used for the erbB2 versus erbB1 selectivity ratio. The format is cell-based. The conditions noted are these: comparison of IC50 for EGFR transfectant vs. erbB2/EGFR chimera transfectant. Here is the method:
The in vitro activity of small molecule compounds as erbB kinase inhibitors in intact cells may be determined by the following procedure. […] The cells are incubated at 37° C. for 2 h. EGF (40 ng/ml final) is added to each well and cells incubate at room temperature for 15 min followed by aspiration of medium, then 100 μl/well cold fixative (50% ethanol/50% acetone containing 200 micromolar sodium orthovanadate) is added. The plate is incubated for 30 min at room temperature followed by washing with wash buffer (0.5% Tween 20 in phosphate buffered saline). Blocking buffer (3% bovine serum albumin, 0.05% Tween 20, 200 μM sodium orthovanadate in phosphate buffered saline, 100 μl/well) is added followed by incubation for 2 hours at room temperature followed by two washes with wash buffer. PY54 monoclonal anti-phosphotyrosine antibody directly conjugated to horseradish peroxidase (50 μl/well, 1 μg/ml in blocking buffer) or blocked conjugate (1 μg/ml with 1 mM phosphotyrosine in blocking buffer, to check specificity) is added and the plates incubated for 2 hours at room temperature. The plate wells are then washed 4 times with wash buffer. The colorimetric signal is developed by addition of TMB Microwell Peroxidase Substrate (Kirkegaard and Perry, Gaithersburg, Md.), 50 μl per well, and stopped by the addition of 0.09 M sulfuric acid, 50 μl per well. […] The increase in signal in EGF-treated cells over control (non-EGF treated) represents the activity of the EGFR or EGFR/chimera respectively. […] The selectivity of the compounds for erbB2 vs. EGFR is determined by comparison of the IC50 for the EGFR transfectant vs. that for the erbB2/EGFR chimera transfectant.
as §1

For data set [3] the following is noted: clinical trials, patients; cited from earlier work.

Structures are written as SMILES. Where only a bound is given, the exact number is not on record here.

T1 sequence (P04626 720-1255 limits assumed, change not shown): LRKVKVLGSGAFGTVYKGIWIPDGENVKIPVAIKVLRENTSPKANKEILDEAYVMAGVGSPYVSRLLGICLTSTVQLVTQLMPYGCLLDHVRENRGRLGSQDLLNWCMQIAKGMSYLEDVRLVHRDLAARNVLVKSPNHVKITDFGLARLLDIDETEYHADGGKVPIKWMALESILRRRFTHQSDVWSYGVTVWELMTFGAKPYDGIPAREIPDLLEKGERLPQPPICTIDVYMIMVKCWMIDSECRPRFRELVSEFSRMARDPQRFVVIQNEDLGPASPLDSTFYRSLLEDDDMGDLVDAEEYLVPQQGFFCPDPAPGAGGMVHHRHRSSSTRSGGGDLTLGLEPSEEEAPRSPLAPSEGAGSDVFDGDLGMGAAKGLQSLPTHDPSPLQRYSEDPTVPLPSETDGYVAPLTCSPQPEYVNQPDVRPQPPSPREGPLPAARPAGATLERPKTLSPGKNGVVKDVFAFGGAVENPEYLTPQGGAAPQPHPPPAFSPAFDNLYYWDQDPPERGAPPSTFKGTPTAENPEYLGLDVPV

Consider `Cc1ccc(Oc2ccc(Nc3ncnc4ccc(/C=C/CNC(=O)C5CC5)cc34)cc2C)cn1` [Example 11, E-Cyclopropanecarboxylic acid (3-{4-[3-methyl-4-(6-methyl-pyridin-3-yloxy)-phenylamino]-quinazolin-6-yl}-allyl)-amide], for which the IC50 in data set [1] fell in the range of 21 to 50 nM. Further, in data set [2], the “erbB2/erbB1 ratio (selectivity)” value was determined as 122.

For `COC1CCN(C(=O)NC(C)(C)C#Cc2ccc3ncnc(Nc4ccc(Oc5ccc(C)nc5)c(C)c4)c3c2)C1` (stereo not drawn) [Example 8, 3-Methoxy-pyrrolidine-1-carboxylic acid (1,1-dimethyl-3-{4-[3-methyl-4-(6-methyl-pyridin-3-yloxy)-phenylamino]-quinazolin-6-yl}-prop-2-ynyl)-amide], the IC50 in data set [1] fell in the range of 51 to 100 nM. In data set [2], the “erbB2/erbB1 ratio (selectivity)” value turned out to be 308.

As to `Cc1cc(Nc2ncnc3ccc(C#CC4CCNCC4)cc23)ccc1Oc1cccnc1` [Example 14, [3-Methyl-4-(pyridin-3-yloxy)-phenyl]-(6-piperidin-4-ylethynyl-quinazolin-4-yl)-amine], the half-maximal inhibitory concentration (IC50) in data set [1] lay within 21 to 50 nM. In data set [2], the “erbB2/erbB1 ratio (selectivity)” value was 196. Turning to `Cc1ccc(Oc2ccc(Nc3ncnc4ccc(/C=C/CNC(=O)c5cc(C)on5)cc34)cc2C)cn1` [Example 6, E-5-Methyl-isoxazole-3-carboxylic acid (3-{4-[3-methyl-4-(6-methyl-pyridin-3-yloxy)-phenylamino]-quinazolin-6-yl}-allyl)-amide], the half-maximal inhibitory concentration (IC50) in data set [1] was less than 20 nM. In addition, the “erbB2/erbB1 ratio (selectivity)” value in data set [2] stood at 437.

For the compound `CC(=O)NC/C=C/c1ccc2ncnc(Nc3ccc(Oc4ccc(C)nc4)c(Cl)c3)c2c1` [Example 5, E-N-(3-{4-[3-Chloro-4-(6-methyl-pyridin-3-yloxy)-phenylamino]-quinazolin-6-yl}-allyl)-acetamide], the IC50 in data set [1] was 21 to 50 nM. In data set [2], the “erbB2/erbB1 ratio (selectivity)” value worked out at 108. In the same order, the values of `Cc1ccc(Oc2ccc(Nc3ncnc4ccc(C#CCNC(=O)c5cc(C)no5)cc34)cc2C)cn1` [Example 16, 3-Methyl-isoxazole-5-carboxylic acid (3-{4-[3-methyl-4-(6-methyl-pyridin-3-yloxy)-phenylamino]-quinazolin-6-yl}-prop-2-ynyl)-amide] are 21 to 50 nM and 216. As to `CCOc1cc2ncc(C#N)c(Nc3ccc(F)c(Cl)c3)c2cc1NC(=O)/C=C/CN(C)C` [EKB-569], in data set [3], the “dermal toxicity (rash)” value is listed as “dermal toxicity in the form of a rash occurs”.

As for `COCC(=O)NCC#Cc1ccc2ncnc(Nc3ccc(Oc4cccc(OC)c4)c(C)c3)c2c1` [Example 3, 2-Methoxy-N-(3-{4-[4-(3-methoxy-phenoxy)-3-methyl-phenylamino]-quinazolin-6-yl}-prop-2-ynyl)-acetamide], the IC50 in data set [1] lay in the range of 21 to 50 nM. In data set [2], the “erbB2/erbB1 ratio (selectivity)” value worked out at 103. For `Cc1ccc(Oc2ccc(Nc3ncnc4ccc(/C=C/CNC(=O)C5CC5)cc34)cc2Cl)cn1` [Example 4, E-Cyclopropanecarboxylic acid (3-{4-[3-chloro-4-(6-methyl-pyridin-3-yloxy)-phenylamino]-quinazolin-6-yl}-allyl)-amide], the IC50 in data set [1] was in the range of 21 to 50 nM. In data set [2], the “erbB2/erbB1 ratio (selectivity)” value was found to be 142.

On to `CCNC(=O)NCC#Cc1ccc2ncnc(Nc3ccc(Oc4cccnc4)c(Cl)c3)c2c1` [Example 12, 1-(3-{4-[3-Chloro-4-(pyridin-3-yloxy)-phenylamino]-quinazolin-6-yl}-prop-2-ynyl)-3-ethyl-urea], for which, in data set [1], the IC50 was in the range of 21 to 50 nM. Also, the “erbB2/erbB1 ratio (selectivity)” value in data set [2] was determined as 121. Consider `COC(=O)NCC#Cc1ccc2ncnc(Nc3ccc(Oc4cccnc4)c(C)c3)c2c1` [Example 15, (3-{4-[3-Methyl-4-(pyridin-3-yloxy)-phenylamino]-quinazolin-6-yl}-prop-2-ynyl)-carbamic acid methyl ester], for which, in data set [1], the IC50 was in the range of 51 to 100 nM. The “erbB2/erbB1 ratio (selectivity)” value in data set [2] is 140. Consider `C=CC(=O)Nc1cc2c(Nc3ccc(F)c(Cl)c3)ncnc2cc1OCCCN1CCOCC1` [CI-1033], for which the “dermal toxicity (rash)” value in data set [3] is “dermal toxicity in the form of a rash occurs”. On to `COCC(=O)NC/C=C/c1ccc2ncnc(Nc3ccc(Oc4ccc(C)nc4)c(C)c3)c2c1` [Example 9, E-2-Methoxy-N-(3-{4-[3-methyl-4-(6-methyl-pyridin-3-yloxy)-phenylamino]-quinazolin-6-yl}-allyl)-acetamide], for which, in data set [1], the IC50 lay within 21 to 50 nM. Besides, in data set [2], the “erbB2/erbB1 ratio (selectivity)” value came to 116.

Take `C#Cc1cccc(Nc2ncnc3cc(OCCOC)c(OCCOC)cc23)c1` [CP-358,774]: the “dermal toxicity (rash)” value in data set [3] is given as “this adverse event was observed”. `Cc1cc(Nc2ncnc3ccc(/C=C/CNC(=O)C4CC4)cc23)ccc1Oc1cccnc1` [Example 2, E-Cyclopropanecarboxylic acid (3-{4-[3-methyl-4-(pyridin-3-yloxy)-phenylamino]-quinazolin-6-yl}-allyl)-amide]: the IC50 in data set [1] fell in the range of 21 to 50 nM. The “erbB2/erbB1 ratio (selectivity)” value in data set [2] was found to be 658. As to `Cc1cc(Nc2ncnc3ccc(C#CCNC(=O)CN(C)C)cc23)ccc1Oc1cccnc1` [Example 13, 2-Dimethylamino-N-(3-{4-[3-methyl-4-(pyridin-3-yloxy)-phenylamino]-quinazolin-6-yl}-prop-2-ynyl)-acetamide], the IC50 in data set [1] is less than 20 nM. In addition, in data set [2], the “erbB2/erbB1 ratio (selectivity)” value stood at 182. Take `COC(=O)NC/C=C/c1ccc2ncnc(Nc3ccc(Oc4cccnc4)c(C)c3)c2c1` [Example 7, E-(3-{4-[3-Methyl-4-(pyridin-3-yloxy)-phenylamino]-quinazolin-6-yl}-allyl)-carbamic acid methyl ester]: the IC50 in data set [1] lay within 21 to 50 nM. In addition, the “erbB2/erbB1 ratio (selectivity)” value in data set [2] came out at 1133. On to `COc1cc2ncnc(Nc3ccc(F)c(Cl)c3)c2cc1OCCCN1CCOCC1` [ZD1839], for which the “dermal toxicity (rash)” value in data set [3] was “this adverse event was observed”. `CC(=O)C(=O)NCC#Cc1ccc2ncnc(Nc3cnc(Oc4ccccc4)c(C)c3)c2c1` [Example 1, N-{3-[4-(5-Methyl-6-phenoxy-pyridin-3-ylamino)-quinazolin-6-yl]-prop-2-ynyl}-2-oxo-propionamide]: the IC50 in data set [1] was less than 20 nM. Further, in data set [2], the “erbB2/erbB1 ratio (selectivity)” value worked out at 101. The like results for `CCNC(=O)NCC#Cc1ccc2ncnc(Nc3ccc(Oc4cccnc4)c(C)c3)c2c1` [Example 10, 1-Ethyl-3-(3-{4-[3-methyl-4-(pyridin-3-yloxy)-phenylamino]-quinazolin-6-yl}-prop-2-ynyl)-urea] were, in that order, 21 to 50 nM and 112.
